Activity calls are given as the source filed them. The rule behind the calls is not given here.
How the values were obtained:
BMDM [1] = assay: Antiinflammatory activity against LPS-stimulated mouse BMDM assessed as reduction in NO production at 1.25 uM preincubated for 2 hrs followed by LPS addition for 22 hrs by Griess reagent based assay; assay type: functional, cell-based; settings: time 24.0 hrs
[2] = Inhibition of OGD stimulated ROS accumulation in rat R28 cells assessed as fold decrease in ROS level at 1.25 uM preincubated for 24 hrs followed by OGD stimulation by DCFH-DA staining based confocal laser scanning microscopy; assay type: functional
BMDM [3] = assay: (§1) Antiinflammatory activity against LPS-stimulated mouse BMDM assessed as fold decrease in TNFalpha expression at 1.25 uM preincubated for 2 hrs followed by LPS addition for 22 hrs by ELISA; assay type: functional; settings: time 24.0 hrs
[4] = Cytotoxicity against rat R28 cells assessed as decrease in cellular ATP content incubated for 24 hrs by CellTiter-Lumi Plus cell viability assay; assay type: toxicity, cell-based; settings: r28, 24 h
R28 [5] = assay: (§2) Upregulation of HO-1 protein expression in OGD stimulated rat R28 cells by Western blotting analysis; assay type: functional
[6] = target: Kelch-like ECH-associated protein 1 (Homo sapiens) (UniProt Q14145); assay: Binding affinity to Keap1 (unknown origin) incubated for 15 mins by MST assay; settings: filed as activator
Chain of Kelch-like ECH-associated protein 1 (Homo sapiens) (Q14145 whole entry): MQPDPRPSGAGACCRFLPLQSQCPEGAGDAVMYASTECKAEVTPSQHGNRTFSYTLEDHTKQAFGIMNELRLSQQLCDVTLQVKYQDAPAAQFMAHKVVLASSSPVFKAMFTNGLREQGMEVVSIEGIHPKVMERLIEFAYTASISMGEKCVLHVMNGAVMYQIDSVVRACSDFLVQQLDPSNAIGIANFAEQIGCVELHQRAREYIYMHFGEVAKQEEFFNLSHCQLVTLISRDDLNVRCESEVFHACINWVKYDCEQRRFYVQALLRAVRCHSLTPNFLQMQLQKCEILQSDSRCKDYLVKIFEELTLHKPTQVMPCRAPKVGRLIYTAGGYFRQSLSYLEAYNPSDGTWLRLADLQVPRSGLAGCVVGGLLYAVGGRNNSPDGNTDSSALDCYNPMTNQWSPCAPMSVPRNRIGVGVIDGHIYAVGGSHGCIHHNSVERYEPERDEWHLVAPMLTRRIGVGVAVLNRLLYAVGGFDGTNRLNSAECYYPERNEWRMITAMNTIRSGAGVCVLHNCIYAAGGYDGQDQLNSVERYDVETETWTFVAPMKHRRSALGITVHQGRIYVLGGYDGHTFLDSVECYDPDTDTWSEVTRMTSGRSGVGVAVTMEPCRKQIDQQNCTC

R28 [7] = assay: Antioxidant activity in rat R28 cells assessed as protection against OGD induced cytotoxicity by measuring cellular ATP level preincubated under OGD condition for 8 hrs followed by reoxygenation for 4 hrs by CellTiter-Lumi Plus cell viability assay; assay type: functional, cell-based; settings: dose 0.1-40 µM, time 12.0 hrs
R28 [8] = assay: (§3) Upregulation of NQO1 protein expression in OGD stimulated rat R28 cells by Western blotting analysis; assay type: functional
BMDM [9] = assay: (§4) Antiinflammatory activity against LPS-stimulated mouse BMDM assessed as induction of polarization toward M2 phenotype at 1.25 uM preincubated for 2 hrs followed by LPS addition for 22 hrs by DAPI staining based confocal laser scanning microscopy; assay type: functional; settings: time 24.0 hrs
R28 [10] = assay: (§5) Upregulation of Nrf2 protein expression in OGD stimulated rat R28 cells by Western blotting analysis; assay type: functional
BMDM [11] = assay: Antiinflammatory activity against LPS-stimulated mouse BMDM assessed as reduction in IL6 expression at 1.25 uM preincubated for 2 hrs followed by LPS addition for 22 hrs by ELISA; assay type: functional, cell-based; settings: time 24.0 hrs
R28 [12] = assay: Antioxidant activity in rat R28 cells assessed as protection against OGD induced cytotoxicity by measuring cellular ATP level at 0.1 to 40 uM preincubated under OGD condition for 8 hrs followed by reoxygenation for 4 hrs by CellTiter-Lumi Plus cell viability assay; assay type: functional, cell-based; settings: dose 0.1-40 µM, time 12.0 hrs
Macrophage = assay: Antiinflammatory activity against LPS-stimulated mouse macrophages assessed as reduction in NO production at 0.1 to 40 uM preincubated for 2 hrs followed by LPS addition for 22 hrs by Griess reagent based assay; assay type: functional, cell-based; settings: dose 0.1-40 µM, time 24.0 hrs
[13] = as §1; assay type: functional; settings: time 24 hrs
[14] = as §2; assay type: functional
[15] = as §3; assay type: functional
R28 [16] = assay: Induction of Nrf2 translocation from cytosol to nucleus in OGD stimulated rat R28 cells; assay type: functional, cell-based
[17] = as §4; assay type: functional; settings: time 24 hrs
[18] = as §5; assay type: functional

Activity [6]	Compound	Activity (BMDM [1])	fold change (FC) [2]	Activity (BMDM [3])	Activity [4]	Activity (R28 [5])	Activity (R28 [7])	Activity (R28 [8])	Activity (BMDM [9])	Activity (R28 [10])	Activity (BMDM [11])	Activity (R28 [12])	Activity (Macrophage)	fold change (FC) [13]	Activity [14]	Activity [15]	Activity (R28 [16])	Activity [17]	Activity [18]
Dose-Dependent Effect	CN(CC(=O)O)CC(=O)Nc1nc2c(s1)C[C@]1(C)[C@H]3C[C@@H](O)[C@@H]4[C@@H]([C@]5(C)CC[C@H](C(C)(C)O)O5)CC[C@@]4(C)[C@]3(C)CC[C@H]1C2(C)C	Active	1.31	inactive	Non-Toxic	inactive	Dose-Dependent Effect	inactive	Active	inactive	Active	Active	Active	–	–	–	–	–	–
Dose-Dependent Effect	CN(CC(=O)O)CC(=O)Nc1nc2c(s1)C[C@]1(C)[C@H]3C[C@@H](O)[C@@H]4[C@@H]([C@]5(C)CC[C@@H](C(C)(C)O)O5)CC[C@@]4(C)[C@]3(C)CC[C@H]1C2(C)C	Active	1.16	–	Non-Toxic	–	Dose-Dependent Effect	–	–	–	Active	Active	Active	48.3	77.93%	85.54%	Active	100%	96.59%

— ChEMBL document CHEMBL6071140, “Ocotillol Derivatives Mitigate Retinal Ischemia-Reperfusion Injury by Regulating the Keap1/Nrf2/ARE Signaling Pathway” (J Med Chem, 2024)
